Reference: patent US8586555B2, “Immunomodulatory compositions, formulations, and methods for use thereof” (Dynavax Technologies Corporation, priority 2001, dated 2013)

Key:
Format in all cases: cell-based
[1] = system: human peripheral blood mononuclear cells (hPBMC); assay: human PBMC assay, Example 7 (oligo 20 μg/ml, cPLGA 100 μg/ml); conditions: for IFN-α Mean / IFN-γ Mean: mean of donors 28115-28118
Protocol: (§1) Hexameric oligonucleotides were tested for immunomodulatory activity alone and complexed with lactic acid/glycolic acid copolymer microcarrier beads using a human peripheral blood mononuclear cells (hPBMC) assay. Peripheral blood was collected from healthy volunteers by venipuncture using heparinized syringes. Blood was layered onto a FICOLL® (Amersham Pharmacia Biotech) cushion and centrifuged. hPBMCs, located at the FICOLL® interface, were collected, then washed twice with cold phosphate buffered saline (PBS). The cells were resuspended and cultured in 48 well plates at 2×10^6 cells/mL at 37° C. in RPMI 1640 with 10% heat-inactivated human AB serum plus 50 units/mL penicillin, 50 μg/mL streptomycin, 300 μg/mL glutamine, 1 mM sodium pyruvate, and 1×MEM non-essential amino acids (NEAA).
(§2) Oligonucleotides were tested as single agents, or in combination with PLGA microspheres (unmodified or cationic). All oligonucleotides contained 100% phosphorothioate linkages and were tested at 20 μg/ml. The PLGA microcarriers were used at 250 μg/ml. When oligos were tested with PLGA microcarriers, the oligo and the microcarriers were added at the same time to the culture. The cells were cultured in the in the presence of test samples for 24 hours, then cell-free medium was collected from each well and assayed for IFN-γ and IFN-α concentration. Two different oligonucleotides were used as controls: a first oligonucleotide known to have immunostimulatory activity (a 22mer oligonucleotide containing an ISS (“ISS+,” 5′-[…]-3′(SEQ ID NO:2)) and a second oligonucleotide of similar sequence but lacking immunostimulatory activity (“ISS−,” 5′-[…]-3′ (SEQ ID NO:1)). SAC (PANSORBIN® CalBiochem, 1/5000 dilution) and a untreated culture were used as additional positive and negative controls, respectively. SAC contains Staph. aureus (Cowan I) cell material. All samples were assayed in duplicate.
(§3) IFN-γ and IFN-α were assayed using CYTOSCREEN™ ELISA kits from BioSource International, Inc., according to the manufacturer's instructions.
(§4) The immunomodulatory activity of the oligonucleotides used in Examples 3 and 4 was confirmed with the human PBMC assay using PBMCs from an additional four donors (donors 28051-28054). Oligonucleotides were tested alone or in combination with cationic PLGA as described in Example 3, except that 96 well plates were used instead of 48 well plates and the oligonucleotides were premixed with the cationic microspheres at room temperature for 15 minutes before they were added to the culture, rather than being added simultaneously to the culture.
Additional oligonucleotides, some incorporating modified bases, were tested for immunomodulatory activity in the human PBMC assay. Oligonucleotides were tested alone or in combination with cPLGA as described in Example 5. The oligonucleotides were premixed with the cationic PLGA microspheres for 15 minutes at room temperature at concentrations of 20 μg/ml and 100 μg/ml, respectively.

[2] = system: human peripheral blood mononuclear cells (hPBMC); assay: human PBMC assay, Example 4 (oligos and PLGA premixed 15 minutes); conditions: for IFN-α Mean / IFN-γ Mean: mean of donors 28044, 28045
Protocol: as §1, §2, §3
Additional hexameric and pentameric oligonucleotides were tested for immunomodulatory activity in the PBMC assay. Oligonucleotides 6-6 (5′-TCGAGA-3′), 6-8 (5′-GTCGAC-3′), 6-9 (5′-GTCGTT-3′), 6-2 (5′-TCGTTT-3′), 6-3 (5′-TTCGTT-3′), 6-4 (5′-TTTCGT-3′), 5-1 (5′-TCGTC-3′), and 5-2 (5′-TCGTT-3′) were tested alone or in combination with cationic PLGA as described in Example 3 except that the oligos and PLGA were premixed for 15 minutes room temperature before addition to the cultures. The test articles were assayed using PBMC isolated from donors 28044 and 28045.

[3] = system: human peripheral blood mononuclear cells (hPBMC); assay: human PBMC assay, Example 5 (96 well plates, premixed); conditions: for IFN-α Mean / IFN-γ Mean: mean of donors 28051-28054
Protocol: as §1, §2, §3, §4

[4] = system: human peripheral blood mononuclear cells (hPBMC); assay: human PBMC assay, Example 6
Protocol: as §1, §2, §3, §4
Additional oligonucleotides were tested for immunomodulatory activity in the human PBMC assay. Oligonucleotides were tested alone or in combination with cPLGA as described in Example 5.
Additional oligonucleotides were tested using hPBMCs from volunteers 154-157 using the same assay. Results, which are shown in Table 7, confirm the activity of oligonucleotides fitting the formula 5′-X1TCGX2-3′, where the oligonucleotide is a 3-6mer, X1 is zero or one nucleotide and X2 is zero to three nucleotides.

[5] = delivered as IMO/MC complexes (cPLGA)

Substance | IFN-α ([1]; donor 28115) | IFN-γ ([1]; donor 28115) | IFN-α ([2]; donor 28044) | IFN-γ ([2]; donor 28044) | IFN-α ([2]; donor 28045) | IFN-γ ([2]; donor 28045) | IFN-α Mean [2] | IFN-γ Mean [2] | immunomodulatory activity ([3]; delivered alone) | immunomodulatory activity [3, 5] | IFN-α ([3]; donor 28051) | IFN-γ ([3]; donor 28051) | IFN-α ([3]; donor 28052) | IFN-γ ([3]; donor 28052) | IFN-α ([3]; donor 28053) | IFN-γ ([3]; donor 28053) | IFN-α ([3]; donor 28054) | IFN-γ ([3]; donor 28054) | IFN-α Mean [3] | IFN-γ Mean [3] | also measured
5′-AATCGT-3′ [Oligonucleotide 6-25] | 7 pg/mL | 2 pg/mL | – | – | – | – | – | – | – | – | – | – | – | – | – | – | – | – | – | – | immunomodulatory activity ([1]; combined with cPLGA): active; IFN-α ([1]; donor 28116): 0 pg/mL; IFN-γ ([1]; donor 28116): 15 pg/mL; IFN-α ([1]; donor 28117): 0 pg/mL; IFN-γ ([1]; donor 28117): 11 pg/mL; IFN-α ([1]; donor 28118): 0 pg/mL; IFN-γ ([1]; donor 28118): 0 pg/mL; IFN-α Mean [1]: 2 pg/mL; IFN-γ Mean [1]: 7 pg/mL
5′-GTCGAC-3′ [Oligonucleotide 6-8] | – | – | 0 pg/mL | 6 pg/mL | 0 pg/mL | 0 pg/mL | 0 pg/mL | 3 pg/mL | inactive | highly active | 1 pg/mL | 0 pg/mL | 0 pg/mL | 0 pg/mL | 6 pg/mL | 1 pg/mL | 0 pg/mL | 2 pg/mL | 2 pg/mL | 1 pg/mL | –
5′-GTCGTT-3′ [Oligonucleotide 6-9] | – | – | 0 pg/mL | 6 pg/mL | 0 pg/mL | 0 pg/mL | 0 pg/mL | 3 pg/mL | inactive | highly active | 0 pg/mL | 1 pg/mL | 0 pg/mL | 0 pg/mL | 6 pg/mL | 2 pg/mL | 0 pg/mL | 1 pg/mL | 2 pg/mL | 1 pg/mL | –
5′-TCCTTT-3′ [Oligonucleotide 6-20, reference compound] | 0 pg/mL | 6 pg/mL | – | – | – | – | – | – | – | – | – | – | – | – | – | – | – | – | – | – | IFN-α Mean ([4]; mean of volunteers 154-157): 0 pg/mL; IFN-γ Mean ([4]; mean of volunteers 154-157): 3 pg/mL; IFN-α ([4]; volunteer 154): 0 pg/mL; IFN-γ ([4]; volunteer 154): 0 pg/mL; IFN-α ([4]; volunteer 155): 0 pg/mL; IFN-γ ([4]; volunteer 155): 0 pg/mL; IFN-α ([4]; volunteer 156): 0 pg/mL; IFN-γ ([4]; volunteer 156): 13 pg/mL; IFN-α ([4]; volunteer 157): 0 pg/mL; IFN-γ ([4]; volunteer 157): 0 pg/mL; IFN-α ([1]; donor 28116): 0 pg/mL; IFN-γ ([1]; donor 28116): 3 pg/mL; IFN-α ([1]; donor 28117): 0 pg/mL; IFN-γ ([1]; donor 28117): 9 pg/mL; IFN-α ([1]; donor 28118): 0 pg/mL; IFN-γ ([1]; donor 28118): 0 pg/mL; IFN-α Mean [1]: 0 pg/mL; IFN-γ Mean [1]: 5 pg/mL
5′-TCGAGA-3′ [Oligonucleotide 6-6] | – | – | 0 pg/mL | 0 pg/mL | 0 pg/mL | 0 pg/mL | 0 pg/mL | 0 pg/mL | inactive | highly active | 1 pg/mL | 2 pg/mL | 4 pg/mL | 2 pg/mL | 0 pg/mL | 1 pg/mL | 10 pg/mL | 2 pg/mL | 4 pg/mL | 2 pg/mL | –
5′-TCGTC-3′ [Oligonucleotide 5-1] | – | – | 0 pg/mL | 6 pg/mL | 0 pg/mL | 7 pg/mL | 0 pg/mL | 6 pg/mL | inactive | highly active | 0 pg/mL | 1 pg/mL | 3 pg/mL | 0 pg/mL | 1 pg/mL | 1 pg/mL | 1 pg/mL | 0 pg/mL | 1 pg/mL | 1 pg/mL | –
